Usually melting point stands for the temperature of the solid-liquid transition.

Where a name gives a salt, the structure may show the parent alone.

In turn, `CCC(=O)N(CC1CCNCC1)c1ccc2cc(OC)ccc2c1.O=C(O)C(F)(F)F` came in with a melting point of 168 to 170 °C.
Take `CCC(=O)N(CC1CCNCC1)c1ccc2cc(OCc3ccccc3)ccc2c1.O=C(O)C(F)(F)F`: the melting point was 151 to 153 °C.
Turning to `CCC(=O)N(CC1CCNCC1)c1cccc(Cl)c1` (as salt: salt), the melting point fell in the range of 94 to 96 °C.
With `COCC(=O)N(CC1CCNCC1)c1ccc(Cl)c(Cl)c1` (as salt: salt), the melting point lay within 115 to 117 °C.
To `CCC(=O)N(CC1CCNCC1)c1ccccc1` (as salt: trifluoroacetic acid salt) belongs 98 to 100 °C; to `CCC(=O)N(CC1CCNCC1)c1ccccn1` (as salt: trifluoroacetic acid salt), 108 to 110 °C; to `CCC(=O)N(CC1CCNCC1)c1ccc(Cl)cn1` (as salt: trifluoroacetic acid salt), 134 to 136 °C.
With `CC(=O)N(CC1CCNCC1)c1ccc(Cl)c(Cl)c1` (as salt: trifluoroacetic acid salt), the melting point was 172 to 174 °C.

The record behind these values is patent US20100204275A1 (published 2010).
